Assay results: patent publication US7662593B2, “Activation method of protein derived from extremely thermophilic bacterium in nucleic acid amplification reaction and use thereof” (Aisin Seiki Kabushiki Kaisha, priority 2004, dated 2010)

Key:
Assay type in all cases: biochemical
T. th. RecA [1] = biological target: T1, T. th. RecA (Thermus thermophilus, UniProt Q5SHB2); assay: PCR with ExTaq-HS polymerase, effects of primer length, Primer Sets 16-21 (Example 6); conditions: 0.4 mM ATP plus 0.4 μg T. th. RecA, primer base length 20 to 45 (Primer Sets 16-21)
T1 construct: made in house
T1 sequence (Q5SHB2 1-340): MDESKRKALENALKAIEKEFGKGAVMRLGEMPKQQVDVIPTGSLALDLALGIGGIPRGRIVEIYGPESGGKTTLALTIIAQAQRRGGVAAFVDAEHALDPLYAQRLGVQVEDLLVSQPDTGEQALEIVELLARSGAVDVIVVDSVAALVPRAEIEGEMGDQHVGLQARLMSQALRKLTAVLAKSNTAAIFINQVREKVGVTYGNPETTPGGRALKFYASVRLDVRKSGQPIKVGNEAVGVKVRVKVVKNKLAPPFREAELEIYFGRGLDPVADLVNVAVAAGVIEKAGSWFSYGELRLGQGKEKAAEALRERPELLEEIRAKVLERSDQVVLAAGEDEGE
Method: The PCR amplification reaction was carried out using a human genome DNA as a template and the primer sets of various lengths. The primer sets used here were Primer Sets 16, 17, 18, 19, 20 and 21 with the base lengths of 20, 25, 30, 35, 40 and 45. The same PCR reaction solutions as in Example 5 were used. Specifically, Reaction solution P was prepared by adding T. th. RecA and ATP. Reaction solution Q was prepared similarly to Reaction solution P except that ATP was not added. As a DNA polymerase, an ExTaq-HS polymerase (manufactured by Takara Bio Inc.) was used. Then, the PCR reaction was carried out under the same conditions as in Example 5, then electrophoresis and staining of the electrophoresed gel were conducted, and then photographing was conducted according to the same procedures as in Example 5.

T. th. RecA [2] = biological target: T1, T. th. RecA; assay: PCR with Ex Taq-HS polymerase with T. th. RecA and ATP (Example 3); conditions: 400 μM ATP plus 0.4 μg T. th. RecA, 36 cycles, Primer Sets 1-6 and 8, compared with no addition
Method: The PCR amplification reaction was carried out using a human genome DNA as a template and Primer Set 1. Two kinds of PCR reaction solutions were prepared as shown below. Specifically, Reaction solution G was prepared with a composition of a general PCR reaction solution without adding any of T. th. RecA and ATP (Control). Reaction solution H was prepared by adding T. th. RecA and ATP further to Reaction solution G. The composition of each of the reaction solutions is as shown below. As a DNA polymerase, an Ex Taq-HS polymerase was used.
(§1) The above reaction solutions were thermally denatured at 94° C. for 30 seconds. Thereafter, the amplification reaction was carried out with 36 cycles (1 cycle: at 94° C. for 15 seconds, at 55° C. for 30 seconds and at 72° C. for 90 seconds). Thereafter, the amplification reaction was completed by the final reaction cycle at 72° C. for 3 minutes and at 4° C. for 10 minutes. After the amplification, 10 μl of the reaction solution was subjected to electrophoresis with 1.2% agarose gel. After the electrophoresis, the bands were visualized by staining the gel with ethidium bromide, and then the electrophoresis gel was photographed. Furthermore, the same experiment was conducted using Primer Sets 2, 3, 4, 5, 6 and 8.

T. th. RecA [3] = biological target: T1, T. th. RecA; assay: PCR with rTaq-HS polymerase: influence of reaction solution composition on T. th. RecA performance, with and without ATP (Example 1); conditions: 400 μM ATP plus 0.4 μg T. th. RecA, rTaq buffer, 35 cycles, human genome DNA, Primer Sets 1-6; compared with T. th. RecA only
Method: The PCR amplification reaction was carried out using a human genome DNA as a template and Primer Set 1. Four kinds of PCR reaction solution were prepared as shown below. Specifically, Reaction solution A was prepared by using 1×rTaq buffer (manufactured by Takara Bio Inc.) as a buffer solution, and Reaction solution B was prepared by adding T. th. RecA further to Reaction solution A. Reaction solution C was prepared by using Taq buffer (manufactured by Takara Bio Inc.) as a buffer solution and adding T. th. RecA. Reaction solution D was prepared by adding T. th. RecA and ATP further to Reaction solution A. The composition of each of the reaction solutions is as shown below. As a DNA polymerase, an rTaq-HS polymerase (manufactured by Takara Bio Inc.) was used.
as §1, with “35” for “36”, “Furthermore, the same experiment was conducted using Primer Sets 2, 3, 4, 5, 6 and 8.” left out

T. th. RecA [4] = biological target: T1, T. th. RecA; assay: PCR with ExTaq-HS polymerase, effects of primer length, Primer Sets 10-15 (Example 5); conditions: 0.4 mM ATP plus 0.4 μg T. th. RecA, 35 cycles, primer base length 20 to 45 (Primer Sets 10-15)
Method: The PCR amplification reaction was carried out using a human genome DNA as a template and the primer sets of various lengths. The primer sets used here were Primer Sets 10, 11, 12, 13, 14 and 15 with the base length of 20, 25, 30, 35, 40 and 45, respectively. Two kinds of PCR reaction solution were prepared as shown below. Specifically, Reaction solution P was prepared by adding T. th. RecA and ATP. Reaction solution Q was prepared similarly to Reaction solution P except that ATP was not added. The composition of each of the reaction solutions is as shown below. As a DNA polymerase, an ExTaq-HS polymerase (manufactured by Takara Bio Inc.) was used.
as §1, with “35” for “36”, “photographed.” for “photographed. Furthermore, the same experiment was conducted using Primer Sets 2, 3, 4, 5, 6 and 8.”

T. th. RecA [5] = biological target: T1, T. th. RecA; assay: PCR with T. th. DNA polymerase, combination of T. th. RecA with ATP (Example 7); conditions: 35 cycles
Method: PCR amplification by the T. th. DNA polymerase was carried out using a human genome DNA as a template and Primer Set 1. Five kinds of PCR reaction solution were prepared as shown below. Specifically, Reaction solution R was prepared by adding T. th. RecA and ATP. Reaction solution S was prepared similarly to Reaction solution R except that ATP was not added. Reaction solution T was prepared similarly to Reaction solution R except that ATP and T. th. […] Reaction solution U was prepared similarly to Reaction solution R except that T. th. RecA and ATP were not added but a T. th. RecA storage buffer was added instead. Further, Reaction solution V was prepared similarly to Reaction solution R except that T. th. RecA was not added. The composition of each of the reaction solutions is as shown below.
The above reaction solutions were thermally denatured at 92° C. for 30 seconds. Then, amplification reaction was carried out with 35 cycles (1 cycle: at 94° C. for 15 seconds, at 55° C. for 30 seconds and at 68° C. for 90 seconds). Thereafter, the amplification reaction was completed by the final reaction cycle at 68° C. for 3 minutes and at 4° C. for 10 minutes. After the amplification, 10 μl of the reaction solution was subjected to electrophoresis with 1.2% agarose gel. […]

T. th. RecA [6] = biological target: T1, T. th. RecA; assay: PCR with rTaq-HS polymerase with various nucleotide 5'-triphosphates and T. th. RecA (Example 4); conditions: 36 cycles; for non-specific amplification in PCR (agarose gel): rTaq buffer
Method: The PCR amplification reaction was carried out using a human genome DNA as a template and Primer Set 1. Seven kinds of PCR reaction solution were prepared as shown below. Specifically, Reaction solution I was a general PCR reaction solution and prepared without adding any of T. th. RecA and nucleotide 5′-triphosphate (Control). Reaction solution J was prepared by adding T. th. RecA to Reaction solution I. Reaction solutions K, L, M and N were prepared by adding GTP, ATP, UTP and CTP to Reaction solution J, respectively. Reaction solution O was prepared by adding only ATP to Reaction solution I without adding T. th. RecA. The composition of each of the reaction solutions is as shown below. As a DNA polymerase, an rTaq-HS polymerase was used.
as §1

T. th. RecA [7] = biological target: T1, T. th. RecA; assay: PCR with rTaq-HS polymerase over 28, 32 or 36 cycles: decrease in T. th. RecA performance, with and without ATP (Example 2); conditions: 400 μM ATP plus 0.4 μg T. th. RecA, Taq buffer, 28, 32 or 36 cycles, Primer Sets 7-9; compared with T. th. RecA only
Method: The PCR amplification reaction was carried out using a human genome DNA as a template and Primer Set 7. Two kinds of PCR reaction solution were prepared as shown below. Specifically, Reaction solution E was prepared by adding T. th. RecA only. Reaction solution F was prepared by adding ATP in addition to T. th. RecA. The composition of each of the reaction solutions is as shown below. As a DNA polymerase, an rTaq-HS polymerase was used.
as §1, with “conducted in 28, 32 or” for “carried out with”, “seconds). And” for “seconds).”, “8” for “2, 3, 4, 5, 6”, “9.” for “8.”

T. th. RecA [8] = biological target: T1, T. th. RecA; assay: PCR and multiplex PCR with T. th. DNA polymerase, T. th. RecA and ATP (Example 8); conditions: 0.4 mM ATP plus 0.4 μg T. th. RecA
Method: The PCR amplification reaction by the T. th. DNA polymerase was carried out using a human genome DNA as a template. The primer sets used herein were Primer Sets 22, 23, 24, 25, 26, 27, 28, 29, 30, 31, 32, 33, 1 and 2. In addition, multiplex PCR was carried out in which these primer sets were added in one reaction system and amplified. Two kinds of PCR reaction solution were prepared as shown below. Specifically, Reaction solution W was prepared by adding T. th. RecA and ATP. Reaction solution X was prepared similarly to Reaction solution W except that T. th. RecA and ATP were not added but a T. th. RecA storage buffer was added instead.
The above reaction solutions were thermally denatured at 92° C. for 30 seconds. Thereafter, the amplification reaction was carried out with 35 cycles (1 cycle: at 94° C. for 15 seconds, at 55° C. for 30 seconds and at 68° C. for 2 minutes). Thereafter, the amplification reaction was completed by the final reaction cycle at 68° C. for 3 minutes and at 4° C. for 10 minutes. After the amplification, 3 μl of the reaction solution was subjected to electrophoresis with 12.5% acrylamide gel. After the electrophoresis, the bands were visualized by staining the gel with cyber green, and then the electrophoresis gel was photographed.

In the case of `Nc1ncnc2c1ncn2[C@@H]1O[C@H](COP(=O)(O)OP(=O)(O)OP(=O)(O)O)[C@@H](O)[C@H]1O` [ATP, adenosine 5′-triphosphate], the “non-specific amplification in PCR (agarose gel)” value (T. th. RecA [1]) is reported as “non-specific amplification was remarkably suppressed”, the “non-specific amplification in PCR (agarose gel)” value (T. th. RecA [2]) is reported as “non-specific amplification was suppressed” and the “non-specific amplification in PCR (agarose gel)” value (T. th. RecA [3]) is reported as “non-specific amplification can be remarkably reduced”. For the same molecule, the “non-specific amplification in PCR (agarose gel)” value (T. th. RecA [4]) was “non-specific amplification can be remarkably reduced”, the “non-specific amplification in PCR (agarose gel)” value (T. th. RecA [5]; 0.4 mM ATP only, without T. th. RecA) was “production of non-specific amplification products was found” and the “non-specific amplification in PCR (agarose gel)” value (T. th. RecA [5]; 0.4 mM ATP plus 0.4 μg T. th. RecA, Primer Sets 1-6 and 8) was “non-specific amplification was remarkably suppressed”. The “non-specific amplification in PCR (agarose gel)” value (T. th. RecA [6]; 400 μM ATP alone, without T. th. RecA, Lanes 43 to 49) was “non-specific amplification was not suppressed”, the “suppression of non-specific amplification, comparison among the NTP and T. th. RecA combinations” value (T. th. RecA [6]; 400 μM GTP, ATP, UTP or CTP plus 0.4 μg T. th. RecA) was “suppressed non-specific amplification the most” and the “non-specific amplification in PCR (agarose gel)” value (T. th. RecA [6]; 400 μM NTP plus 0.4 μg T. th. RecA, Primer Sets 1-6 and 8, compared with T. th. RecA only) was “non-specific amplification can be suppressed”. For the same molecule, the “non-specific amplification in PCR (agarose gel)” value (T. th. RecA [7]) was “non-specific amplification can be suppressed”, the “non-specific amplification in PCR (acrylamide gel)” value (T. th. RecA [8]; 35 cycles, single primer sets 22-33, 1 and 2 (Lanes 1 to 14)) was “non-specific amplification was remarkably suppressed” and the “specific amplification in multiplex PCR (acrylamide gel)” value (T. th. RecA [8]; all 14 primer sets in one reaction system (Lane 15)) was “the target sequences corresponding to each of the primer sets were specifically amplified”.
